From US20250223307A1, “MDM2/MDMX DOUBLE-TARGET INHIBITOR COMPOUND, PRODRUG, PHARMACEUTICAL COMPOSITION, AND PREPARATION METHOD THEREFOR AND USE THEREOF” (GLOBAL HEALTH DRUG DISCOVERY INSTITUTE, priority 2022, published 2025) come the findings set out here.

Converted amounts (≈) assume the structure as drawn.

As a reminder, the IC50 is the point on the concentration scale where inhibition reaches its midpoint. The term solubility denotes the dissolved amount per volume that the medium holds.

Data set [1] has as its target MDM2 (Homo sapiens, UniProt Q00987). Briefly: HTRF test: inhibition of MDM2-p53 protein binding.
Data set [2] in a line: Solubility test. As to conditions: aqueous buffer, kinetic from dmso stock, phosphate buffer pH 7.4, 25° C. It counts as physicochemical. As to the method:
Test Example 2: Solubility Test
A test substance and a control drug progesterone were prepared with DMSO into a 10 mM stock solution
30 μL 10 mM stock solution prepared from the test substance and the control drug progesterone was taken and added into bottles in corresponding positions of 96-well sample plate in a specified order. Then, 970 μL of phosphate buffer with pH 7.4 was added into corresponding bottles of the sample plate. The experiments were two parallel experiments. A stirring rod was added into each bottle, and each bottle was covered with a polytetrafluoroethylene/silicon organic resin bottle plug. Then, a sample tray was placed in Eppendorf Thermomixer Comfort and vibrated at a rotating speed of 1100/min at 25° C. for 2 h. 2 h later, the bottle plug was removed, the stirring rod was taken away with a large magnet, and then samples were transferred to a filter plate from the sample plate. A vacuum pump generated a negative pressure to filter the samples. […]
A sample injection plate was placed in a sample injection tray of an automatic sample injection, and samples were evaluated through liquid analysis. […]
Analysis and quantification of the filter of the samples were completed by qualitatively and quantitatively analyzing the peak of a standard product with known concentration through liquid chromatography-mass spectrometry. […]

Data set [3] concerns the target T1, MDMX (Homo sapiens, UniProt O15151).
T1 sequence (O15151 2-134): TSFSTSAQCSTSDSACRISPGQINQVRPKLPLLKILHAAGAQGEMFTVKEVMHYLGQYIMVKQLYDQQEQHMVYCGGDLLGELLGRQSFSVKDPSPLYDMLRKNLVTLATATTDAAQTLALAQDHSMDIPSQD
The data set is described as follows: HTRF test: inhibition of MDMX-p53 protein binding. For orientation: Time-resolved FRET reads energy transfer from a long-lived donor to a nearby acceptor.

The subject of data set [4] is Blood cancer cells RS4; 11. Briefly: CellTiter Glo test: growth inhibition of cells. It counts as cell-based. As to conditions: Homo sapiens, 11 cells, 72 h, cell viability. (Cellular ATP, detected with luciferase, serves as a proxy for viable cell number.)

Chain of MDM2 (Q00987 2-138): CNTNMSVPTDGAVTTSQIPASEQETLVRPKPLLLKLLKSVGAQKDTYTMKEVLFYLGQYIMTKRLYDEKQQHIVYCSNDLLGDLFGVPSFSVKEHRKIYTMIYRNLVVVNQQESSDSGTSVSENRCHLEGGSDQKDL

In the case of `N#Cc1ccc(C(COP(=O)(O)O)N2C(=O)N/C(=C\c3c[nH]c4cc(Cl)ccc34)C2=O)cc1` (stereo not shown) [Compound 40, (Z)-2-(4-((6-chloro-1H-indol-3-yl)methylene)-2,5-dioxoimidazolidin-1-yl)-2-(4-cyanophenyl)ethyl dihydrophosphate], the IC50 was 10 to 100 nM in data set [1] and over 100 nM in data set [3]. In addition, the solubility at 2 h in data set [2] was determined as 146 µg/mL (≈ 299 µM).
Take `N#Cc1ccc(C(CO)N2C(=O)N/C(=C\c3c[nH]c4cc(Cl)ccc34)C2=O)cc1` (stereo not shown) [Compound 38, (Z)-4-(1-(4-((6-chloro-1H-indol-3-yl)methylene)-2,5-dioxoimidazolidin-1-yl)-2-hydroxyethyl)benzonitrile]: the IC50 in data set [1] was under 10 nM; in data set [4] it was at most 1000 nM; in data set [3] it was 10 to 100 nM. The same compound showed a solubility at 2 h in data set [2] of 0.075 µg/mL (≈ 0.184 µM).
